Molecular target: T1, transthyretin purified from human serum (Homo sapiens, UniProt P02766)
T1 construct: Using transthyretin purified from human serum as a transthyretin-containing solution; from tissue; host or cells: human serum
Experiment: Quantitative ratio of transthyretin tetramer and transthyretin monomer (gel separation chromatography, Coomassie stain)
Format: biochemical
Settings: metal chloride 80 μg/mL, transthyretin 0.2 mg/mL, incubated at 37° C.
Method: Using transthyretin purified from human serum as a transthyretin-containing solution, the purity thereof was confirmed by electrophoresis. The transthyretin-containing solution (10 mg/mL) was dissolved in a buffer solution to obtain a concentration of 0.2 mg/mL, and chromium chloride (80 μg/mL) was added. The pH of the buffer solution was adjusted to a pH necessary for each experiment using sodium hydroxide or hydrochloric acid. The above-described solution was incubated at 37° C. to produce amyloid fiber.
The transthyretin tetramer and the transthyretin monomer were separated by gel separation chromatography, immersed in the Coomassie Brilliant Blue stain, and examined for color developing intensity. Likewise, measurements were conducted for a comparative example wherein the metal compound added to the solution for incubation was changed from chromium chloride to aluminum chloride, and for a control not formulated with chromium chloride. Also, another test was conducted in the same manner, except that the metal compound added to the solution for incubation was replaced with 80 μg/mL chromium chloride and 80 μg/mL aluminum chloride (chromium chloride and aluminum chloride coexisted). Measurement results of fluorescence intensity and the quantitative ratio of the transthyretin tetramer and the transthyretin monomer are shown in FIG. 1.

| Structure (SMILES) | decomposition from the transthyretin tetramer to the transthyretin monomer | decomposition from the transthyretin tetramer to the transthyretin monomer (listed as aluminum) |
| --- | --- | --- |
| [Cl][Al]([Cl])[Cl] [aluminum ion, aluminum chloride] | promote the reaction of decomposing the transthyretin tetramer to the monomer | promote the decomposition |
| [Cl][Cr]([Cl])[Cl] [trivalent chromium ion, chromium chloride] | inhibit the reaction of decomposing the transthyretin tetramer to produce the monomer | – |
